Tests used:
Format in all cases: in vivo
[1] = tested on: Concord grape vines; test: Bud break and shoot growth of potted dormant Concord grape vines in the greenhouse (Example 1); details: for % bud break (vines with at least one bud break): hydrogen cyanamide 10,000 ppm, 17-0-0 197,100 ppm, 15-0-0 239,060 ppm, ACC 1,000 ppm; for Initial to 50% Bud Break: synchrony of bud break; for 50% Bud Break (DAT): time to 50% bud break
Description: An aqueous 50% hydrogen cyanamide solution (Sigma-Aldrich, St. Louis, Mo. USA) was used as the source of hydrogen cyanamide. The commercial product, Dormex® contains 50% hydrogen cyanamide (w/v) in water.
Erger® was used as the source of 15-0-0 fertilizer. (Erger is a registered trademark of Valagro S.P.A., Italy and is available from Helena Chemical Company, Collierville, Tenn., USA). Erger® contains 15% total nitrogen as 3.1% ammoniacal nitrogen, 5.8% nitrate nitrogen and 6.1% urea nitrogen and 3.3% calcium derived from ammonium nitrate, calcium nitrate and urea. As used herein, the term “15-0-0 fertilizer” refers to the Erger® formulation above and all formulations described in International PCT application publication WO/2001/037653A2 by Valagro S.P.A., Italy, which is incorporated, herein, in its entirety.
CAN-17 was used as the source of 17-0-0 fertilizer. CAN-17 contains 17% total nitrogen as 4.6% ammonium nitrogen and […] nitrate nitrogen and 1.3% urea nitrogen and 8.8% calcium derived from ammonium nitrate and calcium nitrate. CAN-17 is available from J.R. Simplot Company (Boise, Id., USA).
To assess the ability of mixtures of the invention to promote and synchronize bud break these mixtures were applied to Concord grape vines and examined for bud break (initiation of growth) and subsequent shoot development. Specifically, 1 year old dormant bare rooted Concord grape vines were planted in pots containing Pro-Mix® BX potting soil (Pro-Mix is a registered trademark of and available from Premier Horticulture Ltd.) and pruned to 5 nodes on a single shoot. Aqueous solutions of thidiazuron, hydrogen cyanamide, 15-0-0 fertilizer, 17-0-0 fertilizer and 1-aminocyclopropane-1-carboxylic acid (“ACC”), and mixtures thereof were each applied individually or sequentially or co-applied to the first-year wood of separate Concord grape vines. Plants were grown in the greenhouse for 49 days and evaluated for percent of vines showing bud break, or relief from dormancy, periodically between 7 days and the conclusion of the experiment. […] At 49 days after treatment (DAT), the plants were sacrificed and measured for total number of flower clusters, total new shoot length, longest new shoot, combined new shoot fresh weight and combined new shoot dry weight. New shoot growth is the growth arising from the dormant buds not including the woody growth that was planted and gave rise to the new growth.
Synergy is calculated by the Abbott method: %Cexp=A+B−(AB/100), where % Cexp is the expected efficacy and in which A and B are the speed of bud break or shoot length or shoot weight given by the single active ingredients. If the ratio between the experimentally observed efficacy of the mixture Cobs and the expected efficacy of the mixture is greater than 1, synergistic interactions are present in the mixture” (Gisi, Synergistic Interaction of Fungicides in Mixtures, The American Phytopathological Society, 86:11, 1273-1279,1996).

[2] = tested on: Concord grape vines; test: Bud break and harvest weight of endo-dormant two-year-old Concord grape vines in the greenhouse (Example 4); details: thidiazuron ppm and 17-0-0 % as in label, 15-0-0 65,880 ppm
Description: Two-year-old Concord grape vines were purchased commercially. These vines had just lost their leaves and were shipped shortly after they were dug at the nursery. Thus, the vines had not fulfilled their chilling requirement and were considered endo-dormant. The vines were potted individually into one-gallon pots containing ProMix® BX immediately upon receipt and subsequently pruned back to the five proximal buds on the one-year old wood. Within two hours of pruning, treatment solutions were applied using a foam paint brush to the remaining one-year old wood, including the cut end from pruning. Two treatments, water and hydrogen cyanimide, which acted as negative and positive controls, respectively, were included in all studies.
Treatment solutions were made fresh in water and contained 1% (v/v) non-ionic surfactant. In all cases, two treatment solutions were applied to the plants. Where a single component was used for a treatment, the first application solution was water containing surfactant; in the cases where combination treatments were made to the same plant, the first treatment solution was allowed to dry prior to applying the second.
The treated plants were kept in a conventional greenhouse under supplemental lighting. Greenhouse conditions were 65:60° F. Day:Night temperature with a 16:8 hour photoperiod. Relief from dormancy was assessed every two days during the course of the study. Dormancy was considered relieved upon the emergence of a green bud. Both the number of ‘broken buds’ per plant and the date of relief of plants from dormancy were assessed. At the close of the study, new growth was removed from each of the treated plants and weighed.

[3] = tested on: Red Flame seedless grape vines; test: Bud break and shoot length of field-grown Red Flame seedless grape vines (Example 2); details: hydrogen cyanamide 10,000 ppm, thidiazuron 300 ppm, 17-0-0 197,100 ppm
Experimental: To assess the ability of mixtures of the invention to promote and synchronize bud break these mixtures were applied to field-grown Red Flame seedless grape vines and examined for bud break (initiation of growth) and subsequent shoot development. Thidiazuron, hydrogen cyanamide, 17-0-0 fertilizer, and mixtures thereof were each applied individually or sequentially (co-applied) to the separate spurs of Red Flame seedless grape vines. Plants were evaluated for bud break at 31 days after treatment, for percent bud break and total new shoot length at 48 days after treatment. Results of these evaluations can be seen below in Tables 4 and 5.

[4] = 49 days post treatment, thidiazuron ppm as in label, other concentrations as in Table 1
[5] = thidiazuron 300 ppm unless label states other, other concentrations as in Table 1
[6] = thidiazuron 300 ppm unless label states other, other concentrations as in Table 1, listed as hydrogen cyanamide

How did the “% bud break (vines with at least one bud break)” value ([1]; 7 DAT, thidiazuron 300 ppm unless label states other) turn out when N#CN [Hydrogen Cyanamide, hydrogen cyanamide] was run?
The value was 0%.

What about the “% bud break (vines with at least one bud break)” value ([1]; 10 DAT, thidiazuron 300 ppm unless label states other) of the same compound?
Its value is 11.1%.

What about the “% bud break (vines with at least one bud break)” value ([1]; 13 DAT, thidiazuron 300 ppm unless label states other) of the same compound?
The value was 44.4%.

What about the “% bud break (vines with at least one bud break)” value ([1]; 15 DAT, thidiazuron 300 ppm unless label states other) of the same compound?
The value was 66.7%.

What about the “% bud break (vines with at least one bud break)” value ([1]; 17 DAT, thidiazuron 300 ppm unless label states other) of the same compound?
The value was 77.8%.

And the “% bud break (vines with at least one bud break)” value ([1]; 20 DAT, thidiazuron 300 ppm unless label states other)?
The value was 88.9%.

And the “% bud break (vines with at least one bud break)” value ([1]; 22 DAT, thidiazuron 300 ppm unless label states other)?
The value was 88.9%.

And the “% bud break (vines with at least one bud break)” value ([1]; 24 DAT, thidiazuron 300 ppm unless label states other)?
Its value is 88.9%.

What about the “% bud break (vines with at least one bud break)” value ([1]; 27 DAT, thidiazuron 300 ppm unless label states other) of the same compound?
The value was 88.9%.

And the “% bud break (vines with at least one bud break)” value ([1]; 29 DAT, thidiazuron 300 ppm unless label states other)?
The value was 88.9%.

What about the “% bud break (vines with at least one bud break)” value ([1]; 31 DAT, thidiazuron 300 ppm unless label states other) of the same compound?
Its value is 88.9%.

And the “% bud break (vines with at least one bud break)” value ([1]; 34 DAT, thidiazuron 300 ppm unless label states other)?
Its value is 100.0%.

And the “% bud break (vines with at least one bud break)” value ([1]; 36 DAT, thidiazuron 300 ppm unless label states other)?
Its value is 100.0%.

What about the “% bud break (vines with at least one bud break)” value ([1]; 38 DAT, thidiazuron 300 ppm unless label states other) of the same compound?
Its value is 100.0%.

And the “% bud break (vines with at least one bud break)” value ([1]; 41 DAT, thidiazuron 300 ppm unless label states other)?
The value was 100.0%.

And the “% bud break (vines with at least one bud break)” value ([1]; 43 DAT, thidiazuron 300 ppm unless label states other)?
Its value is 100.0%.

And the “% bud break (vines with at least one bud break)” value ([1]; 49 DAT, thidiazuron 300 ppm unless label states other)?
The value was 100.0%.

And the “Combined Shoot Dry Weight” value [1, 4]?
Its value is 9.0 g.

And the “Combined Shoot Fresh Weight” value [1, 4]?
The value was 39.3 g.

What about the “Longest Shoot Length” value [1, 4] of the same compound?
Its value is 83.8 cm.

And the “Total # of Flower Clusters” value [1, 4]?
Its value is 0.0.

What about the “Total Shoot Length” value [1, 4] of the same compound?
Its value is 129.8 cm.

What about the “Dry Weight (g)/25% Bud Break to Harvest (d)” value ([1]; combined shoot dry weight at 49 DAT normalised by days from 25% bud break to harvest) of the same compound?
The value was 0.24 g/day.

What about the “Dry Weight (g)/50% Bud Break to Harvest (d)” value ([1]; combined shoot dry weight at 49 DAT normalised by days from 50% bud break to harvest) of the same compound?
Its value is 0.26 g/day.

What about the “Fresh Weight (g)/50% Bud Break to Harvest (d)” value ([1]; combined shoot fresh weight at 49 DAT normalised by days from 50% bud break to harvest) of the same compound?
The value was 1.12 g/day.

And the “50% Bud Break to Harvest” value ([1]; harvest at day 49, thidiazuron 300 ppm unless label states other, other concentrations as in Table 1)?
Its value is 35 days.

And the “Initial to 50% Bud Break” value [1, 5]?
Its value is 5 days.

What about the “Initial to 50% Bud Break” value [1, 6] of the same compound?
The value was ≤ 5 days.

What about the “25% Bud Break (DAT)” value ([1]; time to 25% bud break, thidiazuron 300 ppm unless label states other, other concentrations as in Table 1) of the same compound?
The value was 11 DAT.

And the “50% Bud Break (DAT)” value [1, 5]?
Its value is 14 DAT.

What about the “50% Bud Break (DAT)” value [1, 6] of the same compound?
The value was ≤ 14 DAT.

And the “Fresh Shoot Weight (g)/Plant” value ([2]; new growth at close of study)?
The value was 31.49 g.

What about the “50% Bud Break (DAT)” value [2] of the same compound?
The value was 16 DAT.

What about the “100% Bud Break (DAT)” value [2] of the same compound?
The value was 33 DAT.

What about the “Initial to 50% Bud Break” value [2] of the same compound?
The value was 2.

And the “Number of Buds Broken/Plant” value [2]?
The value was 1.5.

And the “Broken Buds per plant (Average Buds Broken per Spur)” value ([3]; 31 days after treatment)?
Its value is 0.53.

And the “% Broken Buds” value ([3]; 48 days after treatment)?
Its value is 58.8%.

What about the “Total Shoot Length” value ([3]; 48 days after treatment) of the same compound?
Its value is 25.2.

Reference: patent US10757943B2, “Thidiazuron mixtures and uses thereof” (Valent BioSciences LLC, priority 2017, dated 2020)
